Reference: US12559506B2, “Indazole based compounds and associated methods of use” (Arvinas Operations, Inc., priority 2021, dated 2026)
Read-outs that look alike come from different tables or passages of the source.

Target: T1, LRRK2 (endogenous, HiBit tagged) (Homo sapiens, UniProt Q5S007)
T1 construct: endogenous in cells; host or cells: HEK293 cells with HiBit knock-in at the endogenous LRRK2 locus, stably expressing firefly luciferase
Experiment: Endogenous LRRK2 degradation assay, endogenous gene C-terminally HiBit-tagged in HEK293 cells (Nano-Glo Dual Luciferase)
Type: cell-based
Description: Exemplary Assay for Testing LRRK2 Degradation Driven by Exemplary Hetero-Bifunctional Compounds Designed to Target LRRK2
The assay measures the degradation of LRRK2 in cells where the C-terminus (3′) of the endogenous gene has been tagged with a HiBit sequence in HEK293 cells. The cells also express firefly luciferase, expressed from a Cytomegalovirus promoter and introduced into the HiBit tagged cells and stably expressed. The Nano-Glo® Dual Luciferase Reporter Assay System (Promega™, Madison, WI) was utilized.
Day 1—Preparation of Compound and Assay Plates. Two sets of plates were prepared: a triplicate set for the HiBit assay in white 384-well plates and a triplicate set of plate in black 384-well plates for the Alamar Blue cell viability assay. Briefly, the growth media (DMEM+Glutamax-10% fetal bovine serum-1% Penicillin-Streptomicin) from two T128 flasks was aspirated from the flasks. Cells were washed with Dulbecco's Phosphate Buffered Saline (dPBS) and aspirated. Trypsin (3 mL per flask) was added and the flasks were incubated for 2-3 minutes.
Ten mL of OptiMEM-10% fetal bovine-1% penicillin-streptomycin (hereinafter, “OptiMEM media”) was added to the flask and the cells and transferred to a 50 mL conical tube. A cell count (25 ul of cell into Effendorf vial+25 ul of Trypan Blue Stain) was performed and the cell density adjusted to 15,000 cell/45 μl/well (3.33×10^5/mL) in OptiMEM media.
Fourty-five microliters of the cell suspension (15,000 cells) was aliquoted to each well of the white 384-well plate. The plates incubated at room temperature for 10 minutes before being placed in the 37° C.+5% CO2 incubator overnight
Day 2—Compound Treatment. Exemplary compounds were prepared at a 1 mM starting concentration and 1:3 serial dilution for 11 points CRC prepared and stored in the freezer. The Master Compound Plate was thawed overnight at room temperature. DMSO (20 μL) was added into column 24 of the Master Compound Plate for negative control and 20 μL of 300 μM of Compound 4 in column 23 as positive control.
Intermediate Compound Plate with 4% DMSO in OptiMEM Media. DMSO was added to warm OptiMEM media to achieve a 4% DMSO solution (approximately 50 mL/plate). One-hundred microliters of the OptiMEM-4% DMSO was aliquoted to each well of 384-Well Deep Well Microplates.
The Master Compound Plate and the Intermediate Compound Plate were spun down.
One microliter of compound from the Master Compound Plate was transferred into the Intermediate plate (a 1:100 dilution). The diluted mixture was mixed and 5 μL transferred into the assay plate (a 1:10 dilution) for the final starting concentration of 1 μM. The Treated Assay plates were incubated for 24 hours at 37° C.+5% CO2. The Master Compound Plate was sealed and store at room temperature for a second run that was performed within a week.
Day 3—HiBit Assay. Five microliters of Alamar Blue was added to each well of the black 384-well plates. The plates were incubated for 2 hours in the incubator (37° C.+5% CO2) and at room temperature for one hour. Fluorescence of each plate was read on a plated reader for the Alamar Blue viability assay.
One set of white assay plates was warmed to room temperature (45 minute).
The One Glo luciferase mixture was prepared. The media from white 384-well assay plates was aspirated. Twenty-five μL of the One Glo luciferase mixture was added to each well of the assay plates. The plates were incubated on the bench (room temperature) for 45 minutes, including 10 minutes of shaking at 700 rpm. The luminescence of each plate was read on a plate reader.
1:100 DLR substrate and 1:100 LgBiT Protein dilution were added to the Promega Stop and Glo buffer and mixed just before addition to assay plates. Twenty-five microliters of Stop and Glo mixture was added to each well. Assay plates incubated for at least 45 minutes, including 10 minutes of shaking at 700 rpm. The luminescence of each plate was read on a plate reader.
Analysis of LRRK2 HiBit Screening assays. […]

[1] = endogenous HiBit-tagged LRRK2 in HEK293 cells, 24 hours, read-out: **Endogenous WT Dmax (%)
[2] = endogenous HiBit-tagged LRRK2 in HEK293 cells, 24 hours, read-out: *Endogenous WT DC50
[3] = endogenous HiBit-tagged LRRK2, HEK293 cells, 24 hours, read-out: **Endogenous WT Dmax (%)
[4] = endogenous HiBit-tagged LRRK2, HEK293 cells, 24 hours, read-out: *Endogenous WT DC50

T1 sequence (Q5S007 whole entry): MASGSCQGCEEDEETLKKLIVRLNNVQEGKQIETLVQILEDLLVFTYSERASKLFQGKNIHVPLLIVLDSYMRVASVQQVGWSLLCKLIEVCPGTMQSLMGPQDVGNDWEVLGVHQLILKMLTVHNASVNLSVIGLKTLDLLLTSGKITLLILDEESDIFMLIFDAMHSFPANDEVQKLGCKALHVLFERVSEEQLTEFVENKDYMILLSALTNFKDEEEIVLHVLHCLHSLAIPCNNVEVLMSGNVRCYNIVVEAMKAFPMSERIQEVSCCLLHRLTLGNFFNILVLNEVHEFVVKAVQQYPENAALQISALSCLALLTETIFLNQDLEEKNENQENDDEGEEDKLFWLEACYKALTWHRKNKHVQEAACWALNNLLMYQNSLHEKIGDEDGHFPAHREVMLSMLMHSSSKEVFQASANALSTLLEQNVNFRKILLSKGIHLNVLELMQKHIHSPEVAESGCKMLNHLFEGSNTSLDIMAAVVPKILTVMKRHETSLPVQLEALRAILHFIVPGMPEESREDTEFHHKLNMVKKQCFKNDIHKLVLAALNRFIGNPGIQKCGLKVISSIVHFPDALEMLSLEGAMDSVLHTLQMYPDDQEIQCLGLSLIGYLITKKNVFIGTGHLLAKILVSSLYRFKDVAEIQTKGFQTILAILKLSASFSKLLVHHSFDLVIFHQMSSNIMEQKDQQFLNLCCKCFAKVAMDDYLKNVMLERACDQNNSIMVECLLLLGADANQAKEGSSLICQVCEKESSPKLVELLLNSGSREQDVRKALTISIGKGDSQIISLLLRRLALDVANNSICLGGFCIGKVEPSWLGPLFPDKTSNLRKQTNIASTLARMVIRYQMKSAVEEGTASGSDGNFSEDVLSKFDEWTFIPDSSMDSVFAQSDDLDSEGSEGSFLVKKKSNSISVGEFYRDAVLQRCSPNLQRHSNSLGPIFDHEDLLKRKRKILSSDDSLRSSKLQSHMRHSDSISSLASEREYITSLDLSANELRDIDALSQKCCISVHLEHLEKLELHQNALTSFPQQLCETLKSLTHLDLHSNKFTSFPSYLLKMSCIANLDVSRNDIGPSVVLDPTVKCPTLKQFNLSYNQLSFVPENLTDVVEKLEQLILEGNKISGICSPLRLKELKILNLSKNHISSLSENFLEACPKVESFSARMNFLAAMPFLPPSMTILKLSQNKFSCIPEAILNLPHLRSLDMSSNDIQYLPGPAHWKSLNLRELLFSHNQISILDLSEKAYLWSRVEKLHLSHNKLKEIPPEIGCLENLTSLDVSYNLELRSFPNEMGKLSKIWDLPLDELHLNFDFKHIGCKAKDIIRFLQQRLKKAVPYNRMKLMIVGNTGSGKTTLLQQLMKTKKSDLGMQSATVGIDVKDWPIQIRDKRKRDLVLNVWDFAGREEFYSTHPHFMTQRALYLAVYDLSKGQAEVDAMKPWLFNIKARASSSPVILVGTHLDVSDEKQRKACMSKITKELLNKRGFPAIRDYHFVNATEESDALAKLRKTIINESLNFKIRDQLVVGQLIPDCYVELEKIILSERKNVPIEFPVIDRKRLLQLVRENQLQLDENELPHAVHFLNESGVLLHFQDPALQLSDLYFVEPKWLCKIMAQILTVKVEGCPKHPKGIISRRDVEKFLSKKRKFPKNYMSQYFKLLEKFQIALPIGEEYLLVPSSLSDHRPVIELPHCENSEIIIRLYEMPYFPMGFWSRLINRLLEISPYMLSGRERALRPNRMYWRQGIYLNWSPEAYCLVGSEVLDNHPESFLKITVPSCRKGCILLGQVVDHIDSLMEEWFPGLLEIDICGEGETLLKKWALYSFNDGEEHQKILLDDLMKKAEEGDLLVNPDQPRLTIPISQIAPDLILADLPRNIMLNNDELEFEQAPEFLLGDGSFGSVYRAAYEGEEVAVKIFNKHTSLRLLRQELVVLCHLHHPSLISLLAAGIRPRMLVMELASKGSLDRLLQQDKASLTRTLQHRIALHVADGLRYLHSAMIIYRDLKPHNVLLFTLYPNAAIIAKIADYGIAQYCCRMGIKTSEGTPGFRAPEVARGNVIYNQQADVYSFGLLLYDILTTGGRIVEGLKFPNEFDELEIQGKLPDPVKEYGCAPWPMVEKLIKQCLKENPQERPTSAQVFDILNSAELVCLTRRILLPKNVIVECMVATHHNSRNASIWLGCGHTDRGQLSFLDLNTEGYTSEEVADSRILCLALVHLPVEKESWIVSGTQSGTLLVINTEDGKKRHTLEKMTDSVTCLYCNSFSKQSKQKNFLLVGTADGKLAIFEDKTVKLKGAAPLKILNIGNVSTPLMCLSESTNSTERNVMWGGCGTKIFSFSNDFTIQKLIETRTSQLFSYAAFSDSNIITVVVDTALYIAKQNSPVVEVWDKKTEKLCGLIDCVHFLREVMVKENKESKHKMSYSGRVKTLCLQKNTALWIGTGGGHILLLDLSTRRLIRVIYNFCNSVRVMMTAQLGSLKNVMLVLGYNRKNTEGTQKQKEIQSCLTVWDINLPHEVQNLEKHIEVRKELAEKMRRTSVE

Row | SMILES | Dmax [1] [%] | DC50 [2] [nM] | other results
1 | CC1(Oc2ccc3n[nH]c(-c4cc(N5CCC(O[C@H]6CC[C@H](OC7CCN(c8ccc9c(c8F)CN(C8CCC(=O)NC8=O)C9=O)CC7)C6)CC5)ncn4)c3c2)CC1 (mixture of isomers) [Compound 240, 3-[4-fluoro-5-[4-[(1S,3S)-3-[[1-[6-[5-(1-methylcyclopropoxy)-2H-indazol-3-yl]pyrimidin-4-yl]-4-piperidyl]oxy]cyclopentoxy]-1-piperidyl]-1-oxo-isoindolin-2-yl]piperidine-2,6-dione and 3-[4-fluoro-5-[4-[(1R,3R)-3-[[1-[6-[5-(1-methylcyclopropoxy)-2H-indazol-3-yl]pyrimidin-4-yl]-4-piperidyl]oxy]cyclopentoxy]-1-piperidyl]-1-oxo-isoindolin-2-yl]piperidine-2,6-dione] |  |  | DC50 (endogenous HiBit-tagged LRRK2 in HEK293 cells, 24 hours treatment, read-out: Endogenous WT DC50): < 10 nM; Dmax (endogenous HiBit-tagged LRRK2 in HEK293 cells, 24 hours treatment, read-out: Endogenous WT Dmax): 50 to 70%
2 | CC1(Oc2ccc3[nH]nc(-c4cc(N5CCN(C[C@@H]6CC[C@@H](CN7CCN(c8ccc9c(c8F)CN(C8CCC(=O)NC8=O)C9=O)CC7)OC6)CC5)ncn4)c3c2)CC1 (single isomer, unassigned) [Compound 305] |  |  | Dmax (endogenous HiBit-tagged LRRK2 in HEK293 cells, 24 hours treatment, read-out: **Endogenous WT Dmax (%)): 50 to 70%; DC50 (endogenous HiBit-tagged LRRK2 in HEK293 cells, 24 hours treatment, read-out: *Endogenous WT DC50): < 10 nM
3 | C[C@H]1CN(c2cc(-c3[nH]nc4ccc(OC5(C)CC5)cc34)ncn2)CCN1CCC1CCN(C(=O)C2CCN(c3ccc4c(c3)C(=O)N(C3CCC(=O)NC3=O)C4=O)CC2)CC1 (stereo partly drawn) [Compound 57, 2-(2,6-dioxopiperidin-3-yl)-5-[4-(4-{2-[(2S)-2-methyl-4-{6-[5-(1-methylcyclopropoxy)-2H-indazol-3-yl]pyrimidin-4-yl}piperazin-1-yl]ethyl}piperidine-1-carbonyl)piperidin-1-yl]-2,3-dihydro-1H-isoindole-1,3-dione] | ≥ 70 | < 10 | 
4 | C[C@H]1CN(c2cc(-c3[nH]nc4ccc(OC5(C)CC5)cc34)ncn2)CCN1CCN1CCC(C(=O)N2CCN(c3ccc4c(c3)C(=O)N(C3CCC(=O)NC3=O)C4=O)CC2)CC1 (stereo partly drawn) [Compound 58, 2-(2,6-dioxopiperidin-3-yl)-5-[4-(1-{2-[(2S)-2-methyl-4-{6-[5-(1-methylcyclopropoxy)-2H-indazol-3-yl]pyrimidin-4-yl}piperazin-1-yl]ethyl}piperidine-4-carbonyl)piperazin-1-yl]-2,3-dihydro-1H-isoindole-1,3-dione] | 50 to 70 | < 10 | 
5 | C[C@H]1CN(c2cc(-c3[nH]nc4ccc(OC5(C)CC5)cc34)ncn2)CCN1CC(=O)N1CCC(CN2CCN(c3ccc4c(c3)C(=O)N(C3CCC(=O)NC3=O)C4=O)CC2)CC1 (stereo partly drawn) [Compound 59, 2-(2,6-dioxo-3-piperidyl)-5-[4-[[1-[2-[(2S)-2-methyl-4-[6-[5-(1-methylcyclopropoxy)-2H-indazol-3-yl]pyrimidin-4-yl]piperazin-1-yl]acetyl]-4-piperidyl]methyl]piperazin-1-yl]isoindoline-1,3-dione] | ≥ 70 | < 10 | 
6 | CC1(Oc2ccc3n[nH]c(-c4cc(N5CCC(CO[C@H]6CC[C@H](CN7CCN(c8ccc9c(c8)C(=O)N(C8CCC(=O)NC8=O)C9=O)CC7)CC6)CC5)ncn4)c3c2)CC1 (some centres unmarked) [Compound 60, 2-(2,6-dioxo-3-piperidyl)-5-[4-[[4-[[1-[6-[5-(1-methylcyclopropoxy)-2H-indazol-3-yl]pyrimidin-4-yl]-4-piperidyl]methoxy]cyclohexyl]methyl]piperazin-1-yl]isoindoline-1,3-dione] | ≥ 70 | < 10 | 
7 | CC1(Oc2ccc3n[nH]c(-c4cc(N5CCC(COC6CCN(C(=O)C7CCN(c8ccc9c(c8)C(=O)N(C8CCC(=O)NC8=O)C9=O)CC7)CC6)CC5)ncn4)c3c2)CC1 (centres unmarked) [Compound 62, 2-(2,6-dioxo-3-piperidyl)-5-[4-[4-[[1-[6-[5-(1-methylcyclopropoxy)-2H-indazol-3-yl]pyrimidin-4-yl]-4-piperidyl]methoxy]piperidine-1-carbonyl]-1-piperidyl]isoindoline-1,3-dione] | ≥ 70 | < 10 | 
8 | CC1(Oc2cc3c(-c4cc(N5CCC(CN6CCN(CC7CCN(c8ccc9c(c8)C(=O)N(C8CCC(=O)NC8=O)C9=O)CC7)CC6)CC5)ncn4)n[nH]c3cn2)CC1 (centres unmarked) [Compound 178, 2-(2,6-dioxo-3-piperidyl)-5-[4-[[4-[[1-[6-[5-(1-methylcyclopropoxy)-1H-pyrazolo[3,4-c]pyridin-3-yl]pyrimidin-4-yl]-4-piperidyl]methyl]piperazin-1-yl]methyl]-1-piperidyl]isoindoline-1,3-dione] |  |  | Dmax [3]: ≥ 70%; DC50 [4]: < 10 nM
9 | CC1(Oc2ccc3[nH]nc(-c4cc(N5CCN(CC6(F)CCN(CC7CCN(c8cccc9c8CN(C8CCC(=O)NC8=O)C9=O)CC7)CC6)CC5)ncn4)c3c2)CC1 (centres unmarked) [Compound 179, 3-[4-[4-[[4-fluoro-4-[[4-[6-[5-(1-methylcyclopropoxy)-2H-indazol-3-yl]pyrimidin-4-yl]piperazin-1-yl]methyl]-1-piperidyl]methyl]-1-piperidyl]-1-oxo-isoindolin-2-yl]piperidine-2,6-dione] |  |  | Dmax [3]: 50 to 70%; DC50 [4]: < 10 nM

Further lines, with some results ahead:

Row | Dmax [1] [%] | DC50 [2] [nM] | SMILES | other results
10 | ≥ 70 | < 10 | C[C@H]1CN(c2cc(-c3[nH]nc4ccc(OC5(C)CC5)cc34)ncn2)CCN1CCN1CCN(CC2CCN(c3ccc4c(c3)CN(C3CCC(=O)NC3=O)C4=O)CC2)CC1 (stereo partly drawn) [Compound 65, 3-(5-{4-[(4-{2-[(2S)-2-methyl-4-{6-[5-(1-methylcyclopropoxy)-2H-indazol-3-yl]pyrimidin-4-yl}piperazin-1-yl]ethyl}piperazin-1-yl)methyl]piperidin-1-yl}-1-oxo-2,3-dihydro-1H-isoindol-2-yl)piperidine-2,6-dione] | 
11 | ≥ 70 | < 10 | CC1(Oc2ccc3n[nH]c(-c4cc(N5CCN(CCN6CCN(CC7CCN(c8ccc9c(c8)CN(C8CCC(=O)NC8=O)C9=O)CC7)CC6)CC5)ncn4)c3c2)CC1 (centres unmarked) [Compound 66, 3-{5-[4-({4-[2-(4-{6-[5-(1-methylcyclopropoxy)-2H-indazol-3-yl]pyrimidin-4-yl}piperazin-1-yl)ethyl]piperazin-1-yl}methyl)piperidin-1-yl]-1-oxo-2,3-dihydro-1H-isoindol-2-yl}piperidine-2,6-dione] | 
12 | 50 to 70 | ≥ 100 | CC1(Oc2ccc3[nH]nc(-c4cc(C5CCN(CC6CCN(CC7CCN(c8ccc9c(c8)C(=O)N(C8CCC(=O)NC8=O)C9=O)CC7)CC6)CC5)ncn4)c3c2)CC1 (centres unmarked) [Compound 105, 2-(2,6-dioxo-3-piperidyl)-5-[4-[[4-[[4-[6-[5-(1-methylcyclopropoxy)-1H-indazol-3-yl]pyrimidin-4-yl]-1-piperidyl]methyl]-1-piperidyl]methyl]-1-piperidyl]isoindoline-1,3-dione] | 
13 | < 50 | < 10 | C[C@H]1CN(c2cc(-c3n[nH]c4ccc(OC5(C)CC5)cc34)ncn2)CCN1CC1(F)CN(CC2CCN(c3ccc4c(c3)C(=O)N(C3CCC(=O)NC3=O)C4=O)CC2)C1 (stereo partly drawn) [Compound 123, 2-(2,6-dioxopiperidin-3-yl)-5-{4-[(3-fluoro-3-{[(2S)-2-methyl-4-{6-[5-(1-methylcyclopropoxy)-1H-indazol-3-yl]pyrimidin-4-yl}piperazin-1-yl]methyl}azetidin-1-yl)methyl]piperidin-1-yl}-2,3-dihydro-1H-isoindole-1,3-dione] | 
